Where “and” joins values, the source holds several entries; their conditions need not be identical. Equal values may be shown once. Read-outs that look alike come from different tables or passages of the source. Values belong to the compound of their own block, whether it stands above or below them.
Assay: Plasma pharmacokinetics after intraperitoneal injection in mouse (UPLC-MS/MS)
Format: in vivo
Conditions: for concentration at 5 min / concentration at 0.167 h / concentration at 0.25 h / concentration at 0.5 h / concentration at 1 h / concentration at 2 h / concentration at 4 h / concentration at 8 h / half-life / MRT / AUC(0-inf) / Cmax / Tmax / AUC(0-t) / MRT inf / concentration at 6 h: male, ICR; for concentration at 5 min / concentration at 0.167 h / concentration at 0.25 h / concentration at 0.5 h / concentration at 1 h / concentration at 2 h / concentration at 4 h / concentration at 8 h / half-life / MRT / concentration at 6 h: plasma; for concentration at 5 min / concentration at 0.167 h / concentration at 0.25 h / concentration at 0.5 h / concentration at 1 h / concentration at 2 h / concentration at 4 h / concentration at 8 h / concentration at 6 h: ip; for MRT: read-out: mean residence time (MRT)(0-t); for AUC(0-inf) / Cmax / Tmax / AUC(0-t) / MRT inf / AUClast/D / AUC—% Extrap—obs / T1/2: mouse plasma, prototype drug; for AUC(0-t): read-out: AUClast; for MRT inf: read-out: MRTInf—obs
Method: Positive control drug 4-butyl-α-agarofuran preparation (BAF) and Compound 2 preparation were administered intraperitoneally at a dose of 10 mg/kg/10 ml (calculated according to the crude drug), and a suspension was prepared by ultrasonic grinding with double distilled water. Male ICR mice, with a weight of 21-24 g, were purchased from SPF (Beijing) Biotechnology Co., Ltd.
12 mice were randomly divided into 4 groups, there were 3 parallel cross blood sampling points in each group (5 points in groups 1 and 3, and 6 points in groups 2 and 4), it was administered according to the weight, and blood was collected from the orbital venous plexus at 5 min, 10 min, […], 30 min, 1 h, 2 h, 4 h, 6 h, 8 h, 12 h, and 24 h after administration. The bloods at each time point were collected into Eppendorf (EP) tubes anticoagulated with heparin, and placed on ice and centrifuged at 8000 r/min×5 min, to separate plasma for later use.
20 μl of mouse blank plasma was taken, 55 μl of acetonitrile containing an internal standard solution (200 ng/mL, BAF crude drug and Compound 2 crude drug are mutual internal standards, namely BAF was used as the internal standard of Compound 2, and Compound 2 was used as the internal standard of BAF, similarly hereinafter) is added, 5 μl of a methanol working solution of the compound BAF or Compound 2 with different concentrations was respectively added and mixed uniformly, so that its final plasma concentrations were 0.2, 0.5, 2, 5, 10, 25, 50, 100, 200, 500, 750, and 1000 ng/ml respectively, centrifugation was conducted twice at a high speed of 13000 r/min×5 min, and 5 μl of a supernatant was taken for UPLC-MS/MS analysis.
10 μL of plasma was taken, 30 μL of acetonitrile containing internal standard solution (100 ng/mL) was added to precipitate proteins, after the material was centrifuged twice at a high speed of 13000 r/min×5 min, 5 μl of a supernatant was taken for UPLC-MS/MS analysis.
Chromatographic column: Symmetry C8 (2.1 mm×50 mm, 3.5 μm), column temperature: 25° C., mobile phase: acetonitrile (0.1% formic acid): water (0.1% formic acid)=70:30 gradient elution, flow rate: 0.2 mL/min, Parallel Reaction Monitoring (PRM) detection, BAF: m/z 263.2→245.2; and Compound 2: m/z 317.2→299.2.

[1] = mouse, 10 mg/kg, IP 10 mg/kg, 5 min, read-out: Plasma concentration, Mean
[2] = mouse, 10 mg/kg, IP 10 mg/kg, 0.167 h, read-out: Plasma concentration, Mean
[3] = mouse, 10 mg/kg, IP 10 mg/kg, 0.167 h, read-out: Plasma concentration, individual mice 1-3
[4] = mouse, 10 mg/kg, IP 10 mg/kg, 0.25 h, read-out: Plasma concentration, Mean
[5] = mouse, 10 mg/kg, IP 10 mg/kg, 0.5 h, read-out: Plasma concentration, Mean
[6] = mouse, 10 mg/kg, IP 10 mg/kg, 0.5 h, read-out: Plasma concentration, individual mice 1-3
[7] = mouse, 10 mg/kg, IP 10 mg/kg, 1 h, read-out: Plasma concentration, Mean
[8] = mouse, 10 mg/kg, IP 10 mg/kg, 2 h, read-out: Plasma concentration, Mean
[9] = mouse, 10 mg/kg, IP 10 mg/kg, 2 h, read-out: Plasma concentration, individual mice 1-3
[10] = mouse, 10 mg/kg, IP 10 mg/kg, 4 h, read-out: Plasma concentration, Mean
[11] = mouse, 10 mg/kg, IP 10 mg/kg, 8 h, read-out: Plasma concentration, individual mice 1-3

Plasma concentration, individual mice 1-3 (IP 10 mg/kg, 5 min, 10 mg/kg): 413 ng/mL and 295 ng/mL and 194 ng/mL
Plasma concentration, individual mice 1-3 (IP 10 mg/kg, 0.167 h, 10 mg/kg): 133 ng/mL and 204 ng/mL
Plasma concentration, individual mice 1-3 (IP 10 mg/kg, 0.25 h, 10 mg/kg): 364 ng/mL and 132 ng/mL and 91.8 ng/mL
Plasma concentration, individual mice 1-3 (IP 10 mg/kg, 0.5 h, 10 mg/kg): 45.2 ng/mL and 38.9 ng/mL
Plasma concentration, individual mice 1-3 (IP 10 mg/kg, 1 h, 10 mg/kg): 54.6 ng/mL and 22.2 ng/mL and 24.4 ng/mL
Plasma concentration, individual mice 1-3 (IP 10 mg/kg, 2 h, 10 mg/kg): 6.91 ng/mL and 6.54 ng/mL
Plasma concentration, individual mice 1-3 (IP 10 mg/kg, 4 h, 10 mg/kg): 11.3 ng/mL and 2.09 ng/mL and 2.90 ng/mL
Plasma concentration, individual mice 1-3 (IP 10 mg/kg, 6 h): BLOQ
Plasma concentration, individual mice 1-3 (IP 10 mg/kg, 8 h, 10 mg/kg): BLOQ
Plasma concentration, individual mice 1-3 (IP 10 mg/kg, 12 h): BLOQ
Plasma concentration, individual mice 1-3 (IP 10 mg/kg, 24 h): BLOQ
concentration at 5 min [1]: 301 ng/mL
concentration at 0.167 h [2]: 179 ng/mL
concentration at 0.167 h [3]: 201 ng/mL
concentration at 0.25 h [4]: 196 ng/mL
concentration at 0.5 h [5]: 42 ng/mL
concentration at 0.5 h [6]: 41.9 ng/mL
concentration at 1 h [7]: 33.7 ng/mL
concentration at 2 h [8]: 6.52 ng/mL
concentration at 2 h [9]: 6.1 ng/mL
concentration at 4 h [10]: 5.4 ng/mL
concentration at 8 h [11]: 4.03 ng/mL
half-life (mouse, IP 10 mg/kg): 1.29 h
MRT (mouse, IP 10 mg/kg): 1.05 h
AUC(0-inf) (IP 10 mg/kg): 139 ng·h/mL
Cmax (IP 10 mg/kg): 301 ng/mL
Tmax (IP 10 mg/kg): 5 min
AUC(0-t) (IP 10 mg/kg): 129 ng·h/mL
MRT inf (IP 10 mg/kg): 1.05 h
AUClast/D (IP 10 mg/kg): 12.9 kg·ng·h/mL/mg
AUC—% Extrap—obs (IP 10 mg/kg): 7.24%
T1/2 (IP 10 mg/kg): 1.29 h
Compound: CCCCC1=CCC[C@@]2(C)CC[C@@H]3C[C@]12OC3(C)C [BAF, 4-butyl-α-agarofuran, reference compound]

Plasma concentration, individual mice 1-3 (IP 10 mg/kg, 5 min, 10 mg/kg): 407 ng/mL and 585 ng/mL
Plasma concentration, individual mice 1-3 (IP 10 mg/kg, 0.167 h, 10 mg/kg): 198 ng/mL and 214 ng/mL
Plasma concentration, individual mice 1-3 (IP 10 mg/kg, 0.25 h, 10 mg/kg): 201 ng/mL and 196 ng/mL
Plasma concentration, individual mice 1-3 (IP 10 mg/kg, 0.5 h, 10 mg/kg): 59.8 ng/mL and 67.5 ng/mL
Plasma concentration, individual mice 1-3 (IP 10 mg/kg, 1 h, 10 mg/kg): 41.2 ng/mL and 32.1 ng/mL
Plasma concentration, individual mice 1-3 (IP 10 mg/kg, 2 h, 10 mg/kg): 17.9 ng/mL and 22.3 ng/mL
Plasma concentration, individual mice 1-3 (IP 10 mg/kg, 4 h, 10 mg/kg): 8.03 ng/mL and 6.56 ng/mL
Plasma concentration, individual mice 1-3 (IP 10 mg/kg, 6 h, 10 mg/kg): 3.20 ng/mL and 3.79 ng/mL
Plasma concentration, individual mice 1-3 (IP 10 mg/kg, 8 h, 10 mg/kg): BLOQ
Plasma concentration, individual mice 1-3 (IP 10 mg/kg, 12 h): BLOQ
Plasma concentration, individual mice 1-3 (IP 10 mg/kg, 24 h): BLOQ
concentration at 5 min [1]: 450 ng/mL
concentration at 5 min (mouse, 10 mg/kg, IP 10 mg/kg, 5 min, read-out: Plasma concentration, individual mice 1-3): 359 ng/mL
concentration at 0.167 h [2]: 251 ng/mL
concentration at 0.167 h [3]: 341 ng/mL
concentration at 0.25 h [4]: 195 ng/mL
concentration at 0.25 h (mouse, 10 mg/kg, IP 10 mg/kg, 0.25 h, read-out: Plasma concentration, individual mice 1-3): 188 ng/mL
concentration at 0.5 h [5]: 69.5 ng/mL
concentration at 0.5 h [6]: 81.1 ng/mL
concentration at 1 h [7]: 32.5 ng/mL
concentration at 1 h (mouse, 10 mg/kg, IP 10 mg/kg, 1 h, read-out: Plasma concentration, individual mice 1-3): 24.3 ng/mL
concentration at 2 h [8]: 20 ng/mL
concentration at 2 h [9]: 19.7 ng/mL
concentration at 4 h [10]: 7.45 ng/mL
concentration at 4 h (mouse, 10 mg/kg, IP 10 mg/kg, 4 h, read-out: Plasma concentration, individual mice 1-3): 7.77 ng/mL
concentration at 6 h (mouse, 10 mg/kg, IP 10 mg/kg, 6 h, read-out: Plasma concentration, Mean): 3.56 ng/mL
concentration at 6 h (mouse, 10 mg/kg, IP 10 mg/kg, 6 h, read-out: Plasma concentration, individual mice 1-3): 3.69 ng/mL
concentration at 8 h [11]: 3.17 ng/mL
half-life (mouse, IP 10 mg/kg): 1.61 h
MRT (mouse, IP 10 mg/kg): 1.32 h
AUC(0-inf) (IP 10 mg/kg): 198 ng·h/mL
Cmax (IP 10 mg/kg): 450 ng/mL
Tmax (IP 10 mg/kg): 5 min
AUC(0-t) (IP 10 mg/kg): 190 ng·h/mL
MRT inf (IP 10 mg/kg): 1.32 h
AUClast/D (IP 10 mg/kg): 19 kg·ng·h/mL/mg
AUC—% Extrap—obs (IP 10 mg/kg): 4.16%
T1/2 (IP 10 mg/kg): 1.61 h
Pharmacokinetic properties compared with BAF (mouse, IP): better pharmacokinetic properties
AUC(0-t) as percentage of BAF (mouse, IP 10 mg/kg): 142%
Cmax as percentage of BAF (mouse, IP 10 mg/kg): 150%
Compound: CC1(C)O[C@]23C[C@H]1CC[C@]2(C)CCC=C3CCCC(F)(F)F [Compound 2, (1R,6S,9R)6,10,10-trimethyl-2-(4,4,4-trifluorobutyl)-11-oxatricyclo [7.2.1.0^1,6]dodec-2-ene]

— US20230391741A1, “AGAROFURAN COMPOUND, PREPARATION METHOD THEREFOR, AND APPLICATION THEREOF” (BEIJING CHY PHARMACEUTICAL TECHNOLOGY CO, LTD., priority 2021, published 2023)
